Measured values reported in patent US11154515B2, “Pharmaceutical compositions comprising cannabidiol and beta-caryophyllene and methods for their use” (priority 2017, dated 2021).

Legend:
[1] = system: pro-inflammatory cytokine expression (IL-1α, IL-1β, IL-6, IL-8, TNFα) in HaCaT keratinocytes; assay: Inflammatory epidermal keratinocyte models (SDS, Nickel, Carvacrol, SLIGRL, UVB, Poly p(I:C), SEB/TSLP), cytokine RT-qPCR; format: cell-based, human; conditions: seven keratinocyte inflammation models
[2] = system: OXA-induced ear edema, ACD mouse model; assay: Oxazolone-induced allergic contact dermatitis model, ear edema; format: in vivo
Method: Prednisolone was solved in 1:1 of DMSO/saline and was administered topically (15-15 μL to the inner and outer surface of the ears). All other test compounds were solved in 96% ethanol. All solutions of all the concentrations were prepared freshly on the first day of every experiment and were stored at 4° C., then shaken properly before the treatments.
Anesthesia was induced by ketamine (Richter Gedeon, Budapest, Hungary) (100 mg/kg i.p., repeated as required) with xylazine (Lavet Ltd., Budapest, Hungary) (5 mg/kg i.m.). Animals were sensitized on two consecutive days by painting 2% oxazolone (50-50 μL, Merck KGaA) on the shaved abdomen. On the 6th day the right ears were smeared with 2% oxazolone (OXA) dissolved in 96% ethanol: 15-15 μL solution was applied on each of the inner and outer surfaces. Control ears were treated with 96% ethanol in the same way. Drug-treated groups were treated with 15-15 μL of drug solution smeared to the inner and outer side of the ears every 4 hrs of the experiment after oxazolone treatment. A schematic of the experimental protocol is provided in FIG. 24 and the experimental groups are defined below. • (a) Group 1: Ethanol-treated Controls: left ear: 96% ethanol, right ear: 2% oxazolone • (b) Group 2: 1 μM CBD • (c) Group 3: 10 μM CBD • (d) Group 4: 1 μM HU101 • (e) Group 5: 10 μMHU101
Ear thickness was measured with an engineer's micrometer, with 0.1 mm accuracy, before challenge with test agents and after the challenge at different time points. Data are expressed as % increase of ear thickness compared to the initial values.
Results are expressed as mean±SEM. Comparisons between different treatment groups were performed using two-way ANOVA followed by Sidak's post hoc test for skin thickness and one-way ANOVA followed by Bonferroni's post hoc test for MPO and vascular leakage. * p<0.05 was considered to be significant.

C=C(C)[C@@H]1CCC(C)=C[C@H]1c1c(O)cc(CCCCC)c(F)c1O [HUF101]
rank order of efficacy among the F-CBDs [1]: HUF103>HU559a>HUF101 | efficacy relative to the efficacy of prednisolone ([2]; 1 μM topical, depending on the time-point): 40-60% | Effect in ACD mouse model, significance of ear edema difference ([2]; OXA + CBD 10 μM vs. OXA + HUF101 1 μM, 24 h): ** (** p ≤ 0.01) | Effect in ACD mouse model, significance of ear edema difference ([2]; OXA + CBD 10 μM vs. OXA + HUF101 1 μM, 48 h): *** (*** p ≤ 0.001) | Effect in ACD mouse model, significance of ear edema difference ([2]; OXA + CBD 10 μM vs. OXA + HUF101 1 μM, 56 h): *** (*** p ≤ 0.001) | Effect in ACD mouse model, significance of ear edema difference ([2]; OXA + CBD 10 μM vs. OXA + HUF101 10 μM, 48 h): ** (** p ≤ 0.01) | Effect in ACD mouse model, significance of ear edema difference ([2]; OXA + CBD 10 μM vs. OXA + HUF101 10 μM, 56 h): *** (*** p ≤ 0.001) | Effect in ACD mouse model, significance of ear edema difference ([2]; OXA vs. OXA + HUF101 1 μM, 24 h): *** (*** p ≤ 0.001) | Effect in ACD mouse model, significance of ear edema difference ([2]; OXA vs. OXA + HUF101 1 μM, 48 h): *** (*** p ≤ 0.001) | Effect in ACD mouse model, significance of ear edema difference ([2]; OXA vs. OXA + HUF101 1 μM, 56 h): *** (*** p ≤ 0.001) | Effect in ACD mouse model, significance of ear edema difference ([2]; OXA vs. OXA + HUF101 10 μM, 24 h): *** (*** p ≤ 0.001) | Effect in ACD mouse model, significance of ear edema difference ([2]; OXA vs. OXA + HUF101 10 μM, 48 h): *** (*** p ≤ 0.001) | Effect in ACD mouse model, significance of ear edema difference ([2]; OXA vs. OXA + HUF101 10 μM, 56 h): * (* p ≤ 0.05) | anti-inflammatory actions on OXA-induced edema ([2]; both doses (1 μM and 10 μM), topical, all time-points): statistically significant anti-inflammatory actions at all time-points | effects compared with 1 μM or 10 μM CBD ([2]; both doses, statistically significant compared to 10 μM CBD): more robust effects | efficacy of 1 μM compared with 10 μM ([2]; topical): somewhat higher

C[C@]12C=CC(=O)C=C1CC[C@@H]1[C@@H]2[C@@H](O)C[C@@]2(C)[C@H]1CC[C@]2(O)C(=O)CO [Prednisolone, reference compound]
reduction in OXA-induced edema formation ([2]; positive control, topical): most robust reduction
